The test system of assay [1] is reward/aversion circuitry (GOb, NAc, SLEA, amygdala, VT). Nature of the assay: Double-blind cocaine vs saline infusion fMRI in cocaine addicts (Table II Cocaine (1)). Particulars: Outcomes, right hemisphere.
Assay [2] concerns reward/aversion circuitry (GOb, NAc). Kind of assay: Cocaine expectancy fMRI (prior to/shortly after infusion, before pharmacological effects). The note with it: right hemisphere. The assay is classed as in vivo, human. The text has this:
Also, drug expectancy effects can be observed prior to the infusion of cocaine vs. saline. […] These effects result from probability assessments regarding the potential of receiving a drug reward (i.e. a previously experienced reward).

For assay [3], the system named is reward/aversion circuitry (GOb, NAc, SLEA, amygdala, VT). Kind of assay: Unblinded low-dose morphine vs saline infusion fMRI in drug-naive healthy volunteers. The assay is classed as in vivo, human. The text has this:
Error bars are included for the MRI data acquired as the 20′ time-point, the 70′ time-point, the 150′ time-point, and the 250′ time-point. Time is represented in seconds using a conversion of repetition time (TR)=6 RR intervals=6 seconds. […] (Table II)

The test system of assay [4] is NAc brain region. The note with it: 4 mg/70 kg, noxious heat 46° C.
Experimental: The saline is administered using conventional intravenous techniques. The thermal stimulus is delivered to a subject using a Peltier based thermode. The size of the activations shown in FIG. 10A indicate the relative extent within each region. The size of the region corresponds to the amount of activation in a volume in the NAc. Thus, a relatively small size corresponds to a relatively low activation volume in the NAc while a relatively large size corresponds to a relatively large activation volume in the NAc.
The thermal pulse 794 is provided having a pulse duration typically of about thirty seconds followed by a resting period 792b having a duration typically of about thirty seconds and during which time a neutral temperature is applied to the subject. […] In one experiment, the first temperature (i.e. the neutral temperature) corresponds to a temperature typically of about 35° C. and the second temperature (i.e. the painful temperature) corresponds to a temperature typically of about 46° C. Thus, pulses 792 and 794 in FIG. 10B vary from a temperature typically of about 35° C. to a temperature typically of about 46° C. […]
Assay [5] has as its system aCG and NAc brain regions. Kind of assay: fMRI of 41° C. stimulus in subject sensitized to heat by capsaicin (hyperalgesia, Pain 2). Type of assay: in vivo, human. Here is the method:
Referring now to FIG. 8A, an image of an anterior cingulate gyrus (aCG) having an activation 750 in response to a 41° C. thermal stimulus is shown. […] It should be appreciated of course that any thermal mechanical, chemical device can be used to produce pain. […] Referring now to FIG. 8C, an image of aNAc region 760 in response to a 41° C. thermal stimulus is shown. […] The size and color of the activations shown in FIG. 8C indicate the relative activation and statistical significance respectively within each region.

A short description of assay [6]: Heat/capsaicin sensitization model on the face: VAS pain ratings. Type of assay: in vivo, human. Particulars: 11 point VAS 0-10. On the procedure:
(§1) In one experiment, the following paradigm was used. First allodynia was induced by application of heat in the form of a heat probe as described above to portions of the face of a subject. The heat was applied at a temperature of 44° C. for time period of 5 minutes. Next, a 0.075% capsaicin cream was applied for 20 minutes in the same facial area where the heat probe had been. The capsaicin cream was modified following the method described in “A new human experimental pain model: the heat/capsaicin sensitization model,” Petersen and Rowbotham, Neuroreport. 1999; 10(7):1511-6. Allodynia was produced by the application of normally non-noxious brush and 41 ° C. stimuli to the right (R) and left (L) V2 division of the trigeminal node.
For the 5 minute thermal application, the capsaicin application and the pain induced by normally non-noxious mechanical and thermal stimuli to the right or left V2 region, the subjects rated the intensity of the pain they experienced using a conventional on-line VAS rating scheme (i.e. an 11 point visual analogue scale 0-10; where 0=no pain and 10=maximum pain). The subjects rated the 5 minute thermal application and the capsaicin application on the V2R as approximately 5 and 2.5, respectively, on the VAS rating scale. The application of the brush to the V2R region was rated as a 2.5 on the VAS scale and the brush to the V2L region (i.e. the untreated V2 region) produced no pain. Also, application of the 41° C. probe to the V2R region was rated as approximately 9 on the VAS scale while application of the 41° C. probe to the V2L region was rated as approximately 1 on the VAS scale.

Assay [7] concerns brainstem region spV and thalamus. Nature of the assay: Heat/capsaicin sensitization model on the face: fMRI of spV and thalamus. Type of assay: in vivo, human. Here is the method:
Referring now to FIG. 13, surrogate models of sensitization are explained. Activation in the spV and thalamus following allodynia produced by a heat-capsaicin model in a healthy volunteer are, together, different than in acute pain.
as §1
Curve 1306 represents a zero baseline signal. Curve 1300 is plotted as percent signal change vs. time (seconds).
Referring now to FIG. 13A, a curve 1310 representing the response of the thalamus to a series of brush strokes of an example of pain 2 is shown. Curve 1312 represents a zero baseline signal. The brush strokes are applied during time periods designated 1314a, 1314b.

The test system of assay [8] is VT/PAG brain region. Nature of the assay: fMRI of VT/PAG during intravenous naloxone infusion. Type of assay: in vivo, human. Particulars: naloxone 4 mg/70 kg i.v., infusion period vs preinfusion. Here is the method:
Referring to FIGS. 10E and 10F, central nervous system (CNS) activity in reward/aversive regions is shown in response to an infusion of naloxone (in a dose of 4 mg/70 kg) in a subject.
Referring now to FIG. 10E, the VT/PAG (combined left and right components in region 820) having an activation 820 in response to an infusion of naloxone in a subject. The size and shade of the region 420a indicates the extent of activation and statistical significance respectively within the region. […] In region 820, a darker shade of gray indicates a less significant activation while a region indicated by a lighter shade of gray indicates a more significant activation.
The period 822a has a duration typically of about five minutes followed by the infusion period 822b having a duration typically of about five minutes.
The response is represented by curve 828 showing preinfusion (white background) and post-infusion (stippled background) time points.
As is known, the VT/PAG is part of the reward/aversion circuitry in the brain and since infusion of naloxone elicits a corresponding decrease (as measured by percentage signal change) in the VT/PAG response, the VT/PAG is said to be negatively valenced with respect to a drug that affects pain function, and analgesic responses to pain.

Setting [9] is: Outcomes, Morphine, right hemisphere.

Each structure is given as a SMILES string.

For `COC(=O)[C@H]1[C@@H](OC(=O)c2ccccc2)C[C@@H]2CC[C@H]1N2C` [cocaine], in assay [1], the “Activation, Amygdala R” value was “(X)” and the “Activation, SLEA R” value is “(X)”. The “Activation, Gob R” value in assay [2] is “X^2”.

Regarding `CN1CC[C@]23c4c5ccc(O)c4O[C@H]2[C@@H](O)C=C[C@H]3[C@H]1C5` [morphine], in assay [3] (setting [9]), the “Activation, Gob R” value is recorded as “(X)”; the “Activation, NAc R” value was “X^3”; the “Activation, SLEA R” value is listed as “X^2”. Also, the “Laterality of NAc signal changes” value in assay [3] (averaged time-course, right and left NAc, morphine vs saline) is “bilateral NAc changes”. In assay [3] (drug reward), the “Valence of NAc signal” value was “positively valenced signal”. The “Activation of reward regions such as the NAc” value in assay [3] (low dose morphine, healthy volunteers) is listed as “activation”. Besides, the Subjective effect result in assay [3] (very low doses of morphine) is on record as “mild euphoria”. Besides, in assay [4], the “Analgesic effect determined from NAc activation” value is on record as “attenuates pain”.

Regarding `COc1cc(CNC(=O)CCCC/C=C/C(C)C)ccc1O` [capsaicin], in assay [5], the “NAc signal change to thermal pulse” value was “negative percentage change” and the “aCG signal change to thermal pulse” value is reported as “positive percentage change”. Moreover, in assay [6] (0.075% capsaicin cream 20 minutes on V2R), the “Pain intensity rating of the capsaicin application” value is given as ~2.5. In addition, the “Pain intensity rating of 41° C. probe on treated region” value in assay [6] (41° C. probe to V2R after heat/capsaicin) is recorded as “approximately 9”. Also, the “Pain intensity rating of brush on treated region” value in assay [6] (brush to V2R after heat/capsaicin) turned out to be 2.5. Besides, the “Ipsilateral spV activation” value in assay [7] (41° C. thermal probe to V2 skin treated with capsaicin) is “activation in the ipsilateral spV was observed”. In assay [7] (brush induced allodynia, heat-capsaicin model, p<0.01 t-test), the “Contralateral thalamus signal change” value is reported as “decrease in signal”.

On to `C=CCN1CC[C@]23c4c5ccc(O)c4O[C@H]2C(=O)CC[C@@]3(O)[C@H]1C5` [naloxone], for which the “VT/PAG signal change during infusion” value in assay [8] is recorded as “negative percent change”.

For the origin of these results see patent US6907280B2, “Method and apparatus for objectively measuring pain, pain treatment and other related techniques” (The General Hospital Corporation, priority 1999, dated 2005).
